Earlier results as cited in patent US8048906B2, “Optically pure and enriched isomers of chelating ligands and contrast agents” (Catalyst Medical, priority 2003, dated 2011).
pKd: −log10 of the molar value.

Conditions: binds to HA; peptide isolated from a random 12-mer phage peptide library (Mummert et al., J. Exp. Med. 2000)

Sequence: GAHWQFNALTVR
- pKd: ~6.00
